# Experimental data from patent US20170042955A1, “Novel Anti-Fungal Composition” (priority 2014, published 2017).
# Key:
# C. albicans = test: Antifungal activity by modified Kerby-Bauer disc method; format: cell-based, Candida albicans
# Protocol: • Susceptibility disks (5 mm in diameter) were impregnated with 0.5 mg of desired compound(s)/extract dissolved in DMSO, and placed on Sabouraud dextrose agar plates separately inoculated with the C. albicans and C. glabrata. […] Disc containing only DMSO was used as a negative control. • Anticandidal activity against Candida species: • Dose dependent anti-candidal activity was observed up on treatment using Lawsoniainermisextract against tested C. albicans and C. glabrata (Table 1).
# [1] = system: proteinase of C. albicans NCIM 3074; test: Protease inhibitory activity, native gel electrophoresis (casein zymogram); format: cell-based, Candida albicans; details: 100 μg mL-1 Lawsone; 24-48 h at 37° C.; FIG. 6
# Protocol: (§1) C. albicans NCIM 3074 culture was grown in Sabouraud broth at 37° C. for 12 h. The culture was centrifuged at 7000 rpm for 5 mm to pellet the cells. The cell pellet was washed twice with normal saline and centrifuged to collect the pellets. 100 μL of Candida albicans cell suspension was added to proteinase induction medium containing 1% glucose, 3% yeast carbon base and 1% BSA (Bovine Serum Albumin). […] This was added to respective test tubes immediately after the inoculation of culture. The mixture was incubated for 24-48 h at 37° C. in a shaker at 150 rpm. Culture broth was centrifuged at 7000 rpm for 15 min to remove cells. Cells were lysed and cell lysis was used for zymographic studies after protein estimation. Zymogram was performed with 1% casein incorporated in the acrylamide gel to detect the proteinase inhibition activity. The proteinase inhibitory activity was indicated by no cleavage of casein (no band formation) and it can be compared to complete cleavage of casein by proteinases (white band formation) in control groups. […] Subsequently, 1 ml of 60% perchloric acid was added and the final volume was made to 9.1 ml using distilled water to this 0.5 ml of molybdate II reagent and 0.4 ml ANSA reagent mixture was added. The tubes were shaken well and heated in a boiling water bath for 8 mm exactly. The blue color developed was read using spectrophotometer at 680 nm.
# [2] = system: Phospholipase of C. albicans; test: Phospholipase inhibitory activity, spectrophotometric analysis; format: cell-based, Candida albicans; details: Lawsone 100 μg/ml
# Protocol: as §1
# Candida sp. = details: literature study (13); cited from earlier work
structure (smiles),measurement,setting,value
O=C1C=C(O)C(=O)c2ccccc21 [Lawsone],Inhibition of candidal growth,"C. albicans; C. albicans, all three concentrations 50, 100 and 200 μg/ml, FIG. 1",Complete inhibition of candidal growth
same,zone of inhibition at 50 µg/disc,C. albicans; Candida albicans,14 mm
same,zone of inhibition at 100 µg/disc,C. albicans; Candida albicans,16 mm
same,zone of inhibition at 200 µg/disc,C. albicans; Candida albicans,17 mm
same,"Zymogram result, casein cleavage",[1],intact Casein (no band/less intense band formation)
same,% Inhibition of Phospholipase Enzyme Activity,[2]; compared to Control,77.78%
same,Phospholipase Enzyme Activity (O.D),[2]; read at 680 nm,0.02 O.D
same,Activity on Candida sp.,Candida sp.,there isn't appreciable activity
